Test results as given in paper PMC4209162, “Specific aromatic foldamers potently inhibit spontaneous and seeded Aβ42 and Aβ43 fibril assembly” (Biochemical Journal, 2014).
Entries after “also recorded” stand apart in the source; their conditions may differ.

Experiments:
Aβ42 [1] = target: T1, Aβ42 (Homo sapiens, UniProt P05067); assay: Spontaneous Aβ42 fibrillization (ThT fluorescence, EM); type: biochemical; settings: 25°C; for Inhibition of spontaneous Aβ42 fibrillization: Aβ42 5 μM, foldamer 10 μM, 8 h, agitation, ThT fluorescence (EM 4 h); for Inhibition of spontaneous Aβ42 fibrillization, different assembly conditions: Aβ prepared without DMSO, PBE pH 8, Aβ42 5 μM, foldamer 20 μM, 16 h, ThT
T1 sequence (P05067 672-713 limits assumed): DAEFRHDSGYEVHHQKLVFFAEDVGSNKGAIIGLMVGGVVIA

Aβ42 [2] = target: T1, Aβ42; assay: Seeded Aβ42 fibrillization (ThT fluorescence, EM); type: biochemical; settings: for Extent of seeded Aβ42 fibrillization at 4-fold molar excess of foldamer / Inhibition of seeded Aβ42 fibrillization: Aβ42 5 μM plus seed 0.1 μM monomer; for Extent of seeded Aβ42 fibrillization at 4-fold molar excess of foldamer / Inhibition of seeded Aβ42 fibrillization, different assembly conditions: foldamer 20 μM; for Inhibition of seeded Aβ42 fibrillization: foldamer 5, 10 or 20 μM, 0–2 h, 25°C; for Inhibition of seeded Aβ42 fibrillization, different assembly conditions: Aβ prepared without DMSO, PBE pH 8, Aβ42 5 μM plus seed 0.1 μM monomer, 16 h
Aβ43 [3] = target: T2, Aβ43 (Homo sapiens, UniProt P05067); assay: Spontaneous Aβ43 fibrillization (ThT fluorescence, EM); type: biochemical; settings: for Inhibition of spontaneous Aβ43 fibrillization: foldamer 5, 10 or 20 μM, 0–8 h, EM 10 μM 4 h
T2 sequence (P05067 672-714 limits assumed): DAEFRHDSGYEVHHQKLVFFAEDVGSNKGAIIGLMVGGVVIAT

Aβ43 [4] = target: T2, Aβ43; assay: Seeded Aβ43 fibrillization (ThT fluorescence, EM); type: biochemical; settings: for Inhibition of seeded Aβ43 fibrillization: Aβ43 5 μM plus seed 0.1 μM monomer, foldamer 5, 10 or 20 μM, 0–2 h, 25°C, EM
Aβ42 fibrils = Aβ42 fibrils (Homo sapiens, UniProt P05067); assay: Disassembly of preformed Aβ42 fibrils; type: biochemical; settings: foldamer in 4-fold molar excess, 24 h (results not shown)
Chain of Aβ42 fibrils (P05067 672-713 limits assumed): as the sequence (P05067 672-713 limits assumed) above

FUS = target: T3, FUS (Homo sapiens, UniProt P35637); assay: FUS aggregation (turbidity, absorbance at 395 nm); type: biochemical; settings: GST-FUS 5 μM, foldamer 20 μM, plus TEV protease, 25°C, 0–90 min
T3 sequence (P35637 1-526): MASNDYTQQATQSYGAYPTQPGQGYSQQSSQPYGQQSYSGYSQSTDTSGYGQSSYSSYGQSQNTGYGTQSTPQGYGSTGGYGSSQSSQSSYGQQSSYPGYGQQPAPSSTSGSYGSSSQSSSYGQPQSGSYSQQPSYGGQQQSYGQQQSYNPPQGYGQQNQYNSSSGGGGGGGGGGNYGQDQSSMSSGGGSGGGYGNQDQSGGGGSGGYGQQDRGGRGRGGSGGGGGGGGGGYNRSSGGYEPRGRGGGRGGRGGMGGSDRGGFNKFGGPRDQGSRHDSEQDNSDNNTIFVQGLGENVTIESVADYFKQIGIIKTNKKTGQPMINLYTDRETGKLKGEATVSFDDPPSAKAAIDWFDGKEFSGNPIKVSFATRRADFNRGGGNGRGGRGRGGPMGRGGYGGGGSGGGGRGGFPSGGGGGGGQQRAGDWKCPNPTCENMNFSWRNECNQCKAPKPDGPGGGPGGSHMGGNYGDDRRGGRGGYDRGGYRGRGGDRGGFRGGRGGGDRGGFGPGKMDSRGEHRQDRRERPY
Protocol: GST–TEV–FUS was purified as described. Aggregation was initiated by addition of tobbaco etch virus (TEV) protease to GST–TEV–FUS (5 μM) plus or minus foldamer (20 μM) in assembly buffer (50 mM Tris/HCl pH 8, 0.2 M trehalose and 20 mM glutathione). Aggregation was for 0–90 min at 25°C without agitation in a 96-well plate and was assessed by turbidity (absorbance at 395 nm) using a Tecan Infinite M1000 plate reader. No aggregation occurred unless TEV protease was added to separate GST from FUS [58].

Aβ42 oligomers = Aβ42 oligomers (Homo sapiens, UniProt P05067); assay: A11-reactive Aβ42 conformers (ELISA); type: biochemical; settings: Aβ42 5 μM, foldamer 20 μM, 25°C; for Effect on A11-reactive Aβ42 conformers after 0.5 h: 0.5 h (end of lag phase); for Effect on A11-reactive Aβ42 conformers after 4 h: 4 h (endpoint of fibrillization)
Chain of Aβ42 oligomers (P05067 672-713 limits assumed): as the sequence (P05067 672-713 limits assumed) above

Aβ43 oligomers = Aβ43 oligomers (Homo sapiens, UniProt P05067); assay: A11-reactive Aβ43 conformers (ELISA); type: biochemical; settings: Aβ43 5 μM, foldamer 20 μM, 25°C; for Effect on A11-reactive Aβ43 conformers after 0.5 h: 0.5 h (end of lag phase); for Effect on A11-reactive Aβ43 conformers after 4 h: 4 h (endpoint of fibrillization)
Chain of Aβ43 oligomers (P05067 672-714 limits assumed): as the sequence (P05067 672-714 limits assumed) above

[5] = system: SH-SY5Y human neuroblastoma cells; assay: Toxicity of Aβ42 conformers to SH-SY5Y cells (MTT reduction, LDH release); type: cell-based; settings: 24 h, MTT and LDH; for Effect on toxicity of Aβ42 conformers after 0.5 h of assembly: Aβ42 5 μM assembled with foldamer 20 μM for 0.5 h; for Effect on toxicity of Aβ42 conformers after 4 h of assembly: Aβ42 5 μM assembled with foldamer 20 μM for 4 h
Protocol: (§1) SH-SY5Y human neuroblastoma cells were maintained in Dulbecco's modified Eagle's medium (DMEM) plus 10 mM Hepes, 10% FBS, 4 mM glutamine, penicillin (200 units/ml) and streptomycin (200 μg/ml) in 5% CO2 at 37°C. Cells were differentiated in serum-free DMEM with N2 supplement and 10 μM all-trans-retinoic acid before use. Cells were plated at (10000 cells/well) in 96-well plates and grown overnight. Medium was removed and Aβ conformers or controls were added and cells were incubated for 24 h at 37°C. Toxicity was assessed using an MTT kit (Tox-1; Sigma) or via lactate dehydrogenase (LDH) release using the CytoTox-ONE™ kit (Promega). Toxicity values were normalized to the buffer control without Aβ.

[6] = system: SH-SY5Y human neuroblastoma cells; assay: Toxicity of Aβ43 conformers to SH-SY5Y cells (MTT reduction, LDH release); type: cell-based; settings: 24 h, MTT and LDH; for Effect on toxicity of Aβ43 conformers after 0.5 h of assembly: Aβ43 5 μM assembled with foldamer 20 μM for 0.5 h; for Effect on toxicity of Aβ43 conformers after 4 h of assembly: Aβ43 5 μM assembled with foldamer 20 μM for 4 h
Protocol: as §1

| Substance | Inhibition of spontaneous Aβ42 fibrillization (Aβ42 [1]) | Inhibition of spontaneous Aβ42 fibrillization, different assembly conditions (Aβ42 [1]) | Extent of seeded Aβ42 fibrillization at 4-fold molar excess of foldamer (Aβ42 [2]) | Inhibition of seeded Aβ42 fibrillization (Aβ42 [2]) | Inhibition of seeded Aβ42 fibrillization, different assembly conditions (Aβ42 [2]) | Inhibition of spontaneous Aβ43 fibrillization (Aβ43 [3]; Aβ43 5 μM, 25°C, ThT) | Inhibition of seeded Aβ43 fibrillization (Aβ43 [4]; ThT) | Disassembly of Aβ42 fibrils (Aβ42 fibrils) | Inhibition of FUS aggregation (FUS) | Effect on A11-reactive Aβ42 conformers after 0.5 h (Aβ42 oligomers) | Effect on A11-reactive Aβ42 conformers after 4 h (Aβ42 oligomers) | Effect on A11-reactive Aβ43 conformers after 0.5 h (Aβ43 oligomers) | Effect on A11-reactive Aβ43 conformers after 4 h (Aβ43 oligomers) | Effect on toxicity of Aβ42 conformers after 0.5 h of assembly [5] | Effect on toxicity of Aβ42 conformers after 4 h of assembly [5] | Effect on toxicity of Aβ43 conformers after 0.5 h of assembly [6] | Effect on toxicity of Aβ43 conformers after 4 h of assembly [6] | also measured |
| --- | --- | --- | --- | --- | --- | --- | --- | --- | --- | --- | --- | --- | --- | --- | --- | --- | --- | --- |
| Sal-(Lys-Sal)3-CONH2 | strong inhibitors; also recorded: potent inhibitors | inhibited | very limited | only inhibited seeded Aβ42 fibrillization when present at a 4-fold molar excess over Aβ42 | inhibited | did not block spontaneous Aβ43 fibrillization | did not inhibit seeded Aβ43 fibrillization | did not disassemble Aβ42 fibrils | delayed FUS aggregation | had no effect | remained at higher levels | had no effect | declined more extensively | had no effect | enhanced | neither Sal-(Lys-Sal)3-CONH2 nor Ac-Sal-(Lys-Sal)3-CONH2 affected the toxicity | neither Sal-(Lys-Sal)3-CONH2 nor Ac-Sal-(Lys-Sal)3-CONH2 affected the toxicity | ThT fluorescence of Aβ43 fibrils formed in presence of foldamer (spontaneous) (Aβ43 [3]; Aβ43 5 μM, compared with Aβ43 alone): higher ThT fluorescence; ThT fluorescence of Aβ43 fibrillar forms in presence of foldamer (seeded) (Aβ43 [4]; Aβ43 5 μM plus seed, compared with Aβ43 alone): higher ThT fluorescence signal |
| Ac-Sal-(Lys-Sal)3-CONH2 | strong inhibitors; also recorded: potent inhibitors | inhibited |  | inhibited seeded Aβ42 fibrillization at all concentrations tested | inhibited | did not block spontaneous Aβ43 fibrillization | did not inhibit seeded Aβ43 fibrillization | did not disassemble Aβ42 fibrils | did not inhibit FUS aggregation | had no effect | remained at higher levels | had no effect | declined more extensively | had no effect | enhanced | neither Sal-(Lys-Sal)3-CONH2 nor Ac-Sal-(Lys-Sal)3-CONH2 affected the toxicity | neither Sal-(Lys-Sal)3-CONH2 nor Ac-Sal-(Lys-Sal)3-CONH2 affected the toxicity |  |
| (Arg-Benz)4-CONH2 | strong inhibitors; also recorded: potent inhibitors | inhibited | some fibrillization occurred | only inhibited seeded Aβ42 fibrillization when present at a 4-fold molar excess over Aβ42 | inhibited | blocked spontaneous Aβ43 fibrillization | blocked seeded Aβ43 fibrillization | did not disassemble Aβ42 fibrils | did not inhibit FUS aggregation | had no effect | remained at higher levels | had no effect | had a similar effect | had no effect | enhanced | had no effect | enhanced | Major Aβ43 species by EM (Aβ43 [3]; Aβ43 5 μM, foldamer 10 μM, 4 h, 25°C): small oligomers were the major species; Inhibition of spontaneous Aβ43 fibrillization, different assembly conditions (Aβ43 [3]; Aβ prepared without DMSO, PBE pH 8, Aβ43 5 μM, foldamer 20 μM, 16 h, 25°C, ThT): inhibited; Inhibition of seeded Aβ43 fibrillization, different assembly conditions (Aβ43 [4]; Aβ prepared without DMSO, PBE pH 8, Aβ43 5 μM plus seed 0.1 μM monomer, foldamer 20 μM, 16 h, ThT): inhibited |
